Test results from patent publication US20110098296A1, “Thiazole And Oxazole Kinase Inhibitors” (priority 2007, published 2011).

Experiments:
ErbB2 = target: T1, ErbB2 (Homo sapiens, UniProt P04626); assay: ErbB-2 substrate phosphorylation assay (HTRF); type: biochemical; settings: Method (A): Enzyme Mix incubated with compound at 20° C. for 1 hr, reaction started by adding Substrate Mix
T1 construct: made in house; host or cells: baculovirus expression system
Summary of the method: (§1)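 Baculovirus-expressed kinase (0.8 nM EGFR or 10 nM ErbB2 in enzyme mix) with Peptide C 0.8 μM and ATP 20 μM (substrate-mix levels), MOPS pH 7.5, MnCl2; 90 min, 20 °C, HTRF anti-phosphotyrosine. Method A adds 1 h enzyme–compound preincubation; B none. pIC50, final compound 0.00027–47.6 μM.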

Colo205 tumor cells [1] = assay: Method C: Cell Growth Inhibition Assay (CellTiter-Glo), Colo205; type: cell-based; settings: Homo sapiens, COLO 205, 72 h, 3 days, 4-parameter fit
Summary of the method: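 Growth inhibition is expressed as the concentration giving 50% inhibition relative to vehicle controls, derived from a 4-parameter fit. Tumor cells plated at 500 per well were exposed for 3 days to compound (0.2% DMSO) before total ATP was quantified by CellTiter-Glo.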

SK-MEL-28 tumor cells = assay: Method C: Cell Growth Inhibition Assay (CellTiter-Glo), SK-MEL-28; type: cell-based; settings: Homo sapiens, SK-MEL-28, 72 h, 3 days, 4-parameter fit
Summary of the method: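 Cells plated at 500 cells/well, dosed next day with 10-point 1:3 dilution series (0.2% final DMSO) and grown 3 days at 37 °C, 5% CO2. CellTiter-Glo luminescence (total ATP) served as cell-number surrogate; inhibition relative to DMSO controls, IC50 interpolated by 4-parameter fit.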

B-Raf = B-Raf (Homo sapiens, UniProt P15056); assay: B-Raf Accelerated MEK ATPase assay (BRAMA); type: biochemical; settings: Method (A): BRAMA, kinetic read
Protocol: Compounds of the present invention were tested for B-Raf protein serine kinase inhibitory activity in a B-Raf Accelerated MEK ATPase assay (BRAMA). The BRAMA assay is a high sensitivity assay which measures an intrinsic MEK-mediated ATP hydrolysis uncoupled from downstream ERK phosphorylation by coupling the formation of ADP to NADH oxidation through the enzymes pyruvate kinase and lactate dehydrogenase. When ADP production is initiated by addition of catalytic amounts of an activated Raf enzyme and non-phosphorylated MEK, one observes robust ADP production concomitant with Raf-mediated phosphorylation of MEK.
Method A: Specific details of the assay are disclosed in: C. Rominger, M. Schaber, E. May. Assay for B-Raf Activity Based on Intrinsic MEK ATPase Activity. Statutory Invention Registration Ser. No. 11/084,993 (March, 2005). Method B: The method is the same as method A, but includes the following changes: 1) the assay was performed with a final MEK concentration of 150 nM and 2) the assay was read as single end point instead of a kinetic read.

EGFR = target: T2, EGFR (Homo sapiens, UniProt P00533); assay: EGFR substrate phosphorylation assay (HTRF); type: biochemical; settings: Method (A): Enzyme Mix incubated with compound at 20° C. for 1 hr, reaction started by adding Substrate Mix
T2 construct: made in house; host or cells: baculovirus expression system
Summary of the method: as §1

HN5 tumor cells [2] = assay: Method B: CellTiter-Glo Growth Inhibition Assay, HN5; type: cell-based; settings: Homo sapiens, 72 h, 3 days
Protocol: (§2) Human breast tumor cells (BT474) were cultured in RPMI, (Invitrogen, 22400) containing 10% fetal bovine serum (FBS). Human head and neck tumor cells (HN5) were cultured in low glucose DMEM (Invitrogen, 12320) containing 10% FBS. Human colon tumor cells (Colo205) were cultured in DMEM (Invitrogen, 10564) containing 10% FBS. Human melanoma cancer cells (SK-MEL-28) were incubated in DMEM (Invitrogen). All cell lines were maintained at 37° C. in a humidified 5% CO2, 95% air incubator. Cells were harvested using trypsin/EDTA, counted using a haemocytometer, and plated in 30 μL of the appropriate media described above, at the following densities, in a half-area, black-walled, 96-well tissue culture plate (Corning 3882): BT474 3,000 cells/well, HN5 500 cells/well, Colo205 3,000 cells/well, and SK-MEL-28 500 cells/well). The next day, compounds were diluted in DMEM containing […] gentamicin, from 10 mM stock solutions in DMSO. 30 μL/well of these dilutions were added to the 30 μL/well of media currently on the cell plates. Medium containing 0.6% DMSO was added to control wells. The final concentration of DMSO in all wells was 0.3%. Cells were incubated at 37° C., 5% CO2 for 3 days. Cell biomass was estimated using CellTiter-Glo® reagent (Promega G7571). Briefly, plates were removed from the incubator and allowed to equilibrate to rt for 30 minutes. 25-60 μL of CellTiter-Glo® reagent were added to each well of the treated cells and plates were shaken on an orbital plate shaker for 2 mins. Plates were incubated without shaking for 30 more mins and read in a luminometer with an integration time of 0.5 seconds per well. Percent inhibition of cell growth was calculated relative to vehicle-treated control wells. Concentration of compound that inhibits 50% of vehicle control cell growth (IC50) was interpolated using nonlinear regression (Levenberg-Marquardt) and the equation, y=V max*(1−(x/(K+x)))+Y2, where “K” was equal to the IC50.

Colo205 tumor cells [3] = assay: Method B: CellTiter-Glo Growth Inhibition Assay, Colo205; type: cell-based; settings: Homo sapiens, COLO 205, 72 h, 3 days
Protocol: as §2

BT474 tumor cells [4] = assay: Method B: CellTiter-Glo Growth Inhibition Assay, BT474; type: cell-based; settings: Homo sapiens, BT-474, 72 h, 3 days
Protocol: as §2

HN5 tumor cells [5] = assay: Method A: Methylene Blue Growth Inhibition Assay, HN5; type: cell-based; settings: Homo sapiens, 72 h, 3 days
Protocol: (§3) Human breast (BT474) and head and neck (HN5) tumor cells were cultured in low glucose DMEM (Life Technologies 12320-032) containing 10% fetal bovine serum (FBS). Human colon tumor cells (Colo205) were cultured in DMEM (Invitrogen, 10564) containing 10% FBS. The SV40 transformed human mammary epithelial cell line HB4a was transfected with either human H-ras cDNA (HB4a r4.2) or the human c-ErbB2 cDNA (HB4a c5.2). The HB4a clones were cultured in RPMI containing 10% FBS, insulin (5 g/mL), hydrocortisone (5 g/mL), supplemented with the selection agent hygromycin B (50 g/mL). All lines were grown in a humidified incubator at 37° C. in 95% air, 5% CO2. Cells were harvested using trypsin/EDTA, counted using a haemocytometer, and plated in 100 μL of the appropriate media, at the following densities, in a 96-well tissue culture plate (Falcon 3075): BT474 10,000 cells/well, HN5 3,000 cells/well. The next day, compounds were diluted in DMEM containing […] gentamicin, at twice the final required concentration, from 10 mM stock solutions in DMSO. 100 μl/well of these dilutions were added to the 100 μL of media currently on the cell plates. Medium containing 0.6% DMSO was added to control wells. Compounds diluted in DMEM were added to all cell lines. The final concentration of DMSO in all wells was 0.3%. Cells were returned to the incubator (37° C., […]) for 3 days. Medium was then removed by aspiration. Cell biomass was estimated by staining cells with 90 μL/well methylene blue (Sigma M9140, 0.5% in 1:1 EtOH:H2O), and incubation at room temperature for at least 30 minutes. Stain was removed, and the plates rinsed by immersion in deionized H2O and air-dried. To release stain from the cells 100 μL of solubilization solution were added (1% N-lauroyl sarcosine, sodium salt, Sigma L5125, in PBS), and plates were shaken gently for about 30 minutes. Optical density at 620 nm was measured on a microplate reader. Percent inhibition of cell growth was calculated relative to vehicle-treated control wells. Concentration of compound that inhibits 50% of control cell growth (IC50) was interpolated using nonlinear regression (Levenberg-Marquardt) and the equation,
(§4) y=Vmax*(1−(x/(K+x)))+Y2, where “K” was equal to the IC50.

Colo205 tumor cells [6] = assay: Method A: Methylene Blue Growth Inhibition Assay, Colo205; type: cell-based; settings: Homo sapiens, COLO 205, 72 h, 3 days
Protocol: as §3, §4

BT474 tumor cells [7] = assay: Method A: Methylene Blue Growth Inhibition Assay, BT474; type: cell-based; settings: Homo sapiens, BT-474, 72 h, 3 days
Protocol: as §3, §4

Sequence of B-Raf (P15056 whole entry): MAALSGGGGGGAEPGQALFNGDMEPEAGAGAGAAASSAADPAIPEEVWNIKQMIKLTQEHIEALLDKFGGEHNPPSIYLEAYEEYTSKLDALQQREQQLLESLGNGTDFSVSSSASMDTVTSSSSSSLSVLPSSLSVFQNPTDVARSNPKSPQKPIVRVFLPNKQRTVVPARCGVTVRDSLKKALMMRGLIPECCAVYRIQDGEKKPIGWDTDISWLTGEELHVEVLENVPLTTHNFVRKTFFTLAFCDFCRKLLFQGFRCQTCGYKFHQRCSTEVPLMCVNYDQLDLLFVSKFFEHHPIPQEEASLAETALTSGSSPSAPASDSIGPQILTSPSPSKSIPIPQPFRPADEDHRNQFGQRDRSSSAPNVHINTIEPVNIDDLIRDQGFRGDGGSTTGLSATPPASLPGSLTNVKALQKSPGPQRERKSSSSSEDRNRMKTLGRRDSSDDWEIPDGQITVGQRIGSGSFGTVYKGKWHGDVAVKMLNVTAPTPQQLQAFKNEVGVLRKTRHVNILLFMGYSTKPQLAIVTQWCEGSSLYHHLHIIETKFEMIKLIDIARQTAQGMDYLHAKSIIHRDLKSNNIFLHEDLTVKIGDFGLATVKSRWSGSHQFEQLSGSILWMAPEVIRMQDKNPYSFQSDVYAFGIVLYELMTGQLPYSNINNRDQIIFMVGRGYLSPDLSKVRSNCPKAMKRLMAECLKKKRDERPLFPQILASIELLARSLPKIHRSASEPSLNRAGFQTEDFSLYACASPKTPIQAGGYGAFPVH
T1 sequence (P04626 23-1255): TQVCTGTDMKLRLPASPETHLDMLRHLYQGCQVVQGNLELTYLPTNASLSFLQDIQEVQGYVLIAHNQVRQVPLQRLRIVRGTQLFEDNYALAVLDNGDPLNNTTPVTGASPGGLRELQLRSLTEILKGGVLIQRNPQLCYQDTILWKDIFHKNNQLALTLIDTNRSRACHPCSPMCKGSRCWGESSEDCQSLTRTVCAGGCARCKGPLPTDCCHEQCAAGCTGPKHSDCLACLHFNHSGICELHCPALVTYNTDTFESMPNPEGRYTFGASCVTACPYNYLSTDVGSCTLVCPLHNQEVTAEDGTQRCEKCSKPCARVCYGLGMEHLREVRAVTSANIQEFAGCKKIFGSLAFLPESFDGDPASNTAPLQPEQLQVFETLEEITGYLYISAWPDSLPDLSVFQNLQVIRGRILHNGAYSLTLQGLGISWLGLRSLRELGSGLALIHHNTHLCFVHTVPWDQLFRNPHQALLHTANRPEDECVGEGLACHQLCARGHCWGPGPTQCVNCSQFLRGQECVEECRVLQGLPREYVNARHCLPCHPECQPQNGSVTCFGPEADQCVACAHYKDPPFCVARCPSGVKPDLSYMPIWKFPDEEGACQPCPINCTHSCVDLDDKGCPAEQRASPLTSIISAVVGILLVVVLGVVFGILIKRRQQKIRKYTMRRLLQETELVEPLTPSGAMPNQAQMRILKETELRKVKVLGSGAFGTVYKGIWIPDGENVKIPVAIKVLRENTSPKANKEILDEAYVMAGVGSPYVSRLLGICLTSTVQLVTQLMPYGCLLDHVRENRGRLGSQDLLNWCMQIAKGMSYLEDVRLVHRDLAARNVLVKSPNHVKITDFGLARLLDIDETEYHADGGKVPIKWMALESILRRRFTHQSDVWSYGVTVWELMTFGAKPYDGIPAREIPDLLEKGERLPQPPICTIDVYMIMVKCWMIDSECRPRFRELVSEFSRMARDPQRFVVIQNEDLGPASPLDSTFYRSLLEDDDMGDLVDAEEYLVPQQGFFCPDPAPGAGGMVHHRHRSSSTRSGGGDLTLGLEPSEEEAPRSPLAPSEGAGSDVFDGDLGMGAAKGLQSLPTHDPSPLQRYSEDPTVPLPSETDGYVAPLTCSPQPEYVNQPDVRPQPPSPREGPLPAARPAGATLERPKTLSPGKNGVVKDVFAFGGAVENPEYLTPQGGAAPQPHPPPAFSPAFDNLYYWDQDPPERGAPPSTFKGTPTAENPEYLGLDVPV
T2 sequence (P00533 25-1210): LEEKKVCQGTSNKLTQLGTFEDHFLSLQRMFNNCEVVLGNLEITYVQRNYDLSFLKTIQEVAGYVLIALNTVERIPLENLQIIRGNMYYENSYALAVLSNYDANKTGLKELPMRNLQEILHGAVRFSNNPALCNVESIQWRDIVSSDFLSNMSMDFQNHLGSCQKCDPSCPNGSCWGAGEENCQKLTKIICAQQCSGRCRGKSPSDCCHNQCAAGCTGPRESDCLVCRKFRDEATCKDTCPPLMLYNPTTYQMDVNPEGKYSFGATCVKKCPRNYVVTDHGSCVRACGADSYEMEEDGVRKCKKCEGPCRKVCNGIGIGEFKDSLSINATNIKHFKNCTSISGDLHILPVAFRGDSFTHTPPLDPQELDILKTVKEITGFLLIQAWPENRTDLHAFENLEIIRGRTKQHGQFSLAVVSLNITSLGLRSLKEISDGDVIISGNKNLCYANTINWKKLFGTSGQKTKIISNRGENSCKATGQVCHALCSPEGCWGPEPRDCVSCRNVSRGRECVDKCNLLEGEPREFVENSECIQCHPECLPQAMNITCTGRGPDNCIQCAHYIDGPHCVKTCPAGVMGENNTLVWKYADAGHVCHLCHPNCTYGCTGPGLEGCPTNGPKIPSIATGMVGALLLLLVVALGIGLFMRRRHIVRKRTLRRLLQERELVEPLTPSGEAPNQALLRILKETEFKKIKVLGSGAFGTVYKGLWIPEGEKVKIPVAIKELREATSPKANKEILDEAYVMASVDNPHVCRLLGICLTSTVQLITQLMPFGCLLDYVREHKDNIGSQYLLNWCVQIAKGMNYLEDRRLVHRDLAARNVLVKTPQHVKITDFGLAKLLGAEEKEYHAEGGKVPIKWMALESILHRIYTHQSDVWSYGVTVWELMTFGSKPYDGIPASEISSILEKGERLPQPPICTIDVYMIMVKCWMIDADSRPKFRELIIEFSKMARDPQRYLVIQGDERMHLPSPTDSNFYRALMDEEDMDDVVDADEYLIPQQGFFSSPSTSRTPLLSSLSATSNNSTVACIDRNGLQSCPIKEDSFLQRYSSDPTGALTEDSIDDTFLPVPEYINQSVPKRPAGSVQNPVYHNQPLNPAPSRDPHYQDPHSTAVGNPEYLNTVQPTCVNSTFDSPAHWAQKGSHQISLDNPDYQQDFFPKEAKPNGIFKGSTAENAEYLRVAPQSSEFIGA

SMILES | IC50 (ErbB2) [nM] | IC50 (Colo205 tumor cells [1]) [nM] | IC50 (SK-MEL-28 tumor cells) [nM] | IC50 (B-Raf) [nM] | IC50 (EGFR) [nM] | IC50 (HN5 tumor cells [2]) [nM] | IC50 (Colo205 tumor cells [3]) [nM] | IC50 (BT474 tumor cells [4]) [nM] | IC50 (HN5 tumor cells [5]) [nM] | IC50 (Colo205 tumor cells [6]) [nM] | IC50 (BT474 tumor cells [7]) [nM]
Cc1cc(Nc2nccc(-c3sc(N(C)C)nc3-c3cccc(NC(=O)c4c(F)cccc4F)c3)n2)ccc1CC1CCNCC1 [Example 42, N-{3-[2-(Dimethylamino)-5-(2-{[3-methyl-4-(4-piperidinylmethyl)phenyl]amino}-4-pyrimidinyl)-1,3-thiazol-4-yl]phenyl}-2,6-difluorobenzamide] | < 100 | > 1000 | > 1000 | 100 to 1000 | < 100 |  |  |  |  |  | 
Cc1cc(-c2sc(N)nc2-c2cccc(NC(=O)c3c(F)cccc3F)c2)nc(Nc2cccc(OCCN(C)C)c2)n1 [Example 49, N-[3-(2-Amino-5-{2-[(3-{[2-(dimethylamino)ethyl]oxy}phenyl)amino]-6-methyl-4-pyrimidinyl}-1,3-thiazol-4-yl)phenyl]-2,6-difluorobenzamide] | 100 to 1000 |  |  | > 1000 | < 100 | 100 to 1000 | > 1000 | 100 to 1000 |  |  | 
COCCOc1ccc(Nc2nccc(-c3sc(N)nc3-c3cccc(NC(=O)c4cccn4C)c3)n2)cc1F [Example 66, N-[3-(2-Amino-5-{2-[(3-fluoro-4-{[2-(methyloxy)ethyl]oxy}phenyl)amino]-4-pyrimidinyl}-1,3-thiazol-4-yl)phenyl]-1-methyl-1H-pyrrole-2-carboxamide] | < 100 |  |  | > 1000 | < 100 |  |  |  | < 100 | 100 to 1000 | < 100
Nc1nc(-c2cccc(OCc3ccccc3)c2)c(-c2ccnc(Nc3cccc(-c4cnco4)c3)n2)s1 [Example 69, 4-(2-Amino-4-{3-[(phenylmethyl)oxy]phenyl}-1,3-thiazol-5-yl)-N-[3-(1,3-oxazol-5-yl)phenyl]-2-pyrimidinamine] | < 100 |  |  | > 1000 | < 100 |  |  |  | 100 to 1000 | > 1000 | 100 to 1000
